Literature values in patent publication US20230000079A1, “COMBINATION COMPRISING A TRIKETONE HERBICIDE AND A DIPHENYLETHER HERBICIDE, AND A METHOD FOR MAKING AND USING THE COMBINATION” (Generic Crop Science LLC, priority 2021, published 2023).
Converted amounts (≈) assume the structure as drawn.

With `CCOc1cc(Oc2ccc(C(F)(F)F)cc2Cl)ccc1[N+](=O)[O-]` [Oxyfluorfen, 2-chloro-4-(trifluoromethyl)phenyl 3-ethoxy-4-nitrophenyl ether] as the compound, how does the “solubility in most organic solvents” value read?
The value was “highly soluble”.

And the solubility in water?
Its solubility in water is 0.1 µg/mL (≈ 0.276 µM).

Which water solubility (20° C.) does the source give for `CS(=O)(=O)c1ccc(C(=O)C2C(=O)CCCC2=O)c([N+](=O)[O-])c1` [Mesotrione, 2-[4-(methylsulfonyl)-2-nitrobenzoyl]cyclohexane-1,3-dione] here?
Its water solubility is 1,500 mg/L.
